According to ChEMBL document CHEMBL1144693, “Botryolides A-E, decarestrictine analogues from a fungicolous Botryotrichum sp. (NRRL 38180)” (J Nat Prod, 2008):
Activity calls are given as the source filed them.

Columns and labels:
Assay type in all cases: functional, organism-based
[1] = system: Staphylococcus aureus; test: Antibacterial activity against Staphylococcus aureus ATCC 25923 at 100 ug/disk
[2] = system: Bacillus subtilis; test: Antibacterial activity against Bacillus subtilis ATCC 6051 at 100 ug/disk
[3] = system: Candida albicans; test: Antifungal activity against Candida albicans ATCC 14053 at 100 ug/disk
[4] = system: Aspergillus flavus; test: Antifungal activity against Aspergillus flavus NRRL 6541 at 100 ug/disk
[5] = system: Fusarium verticillioides; test: Antifungal activity against Fusarium verticillioides NRRL 25457 at 100 ug/disk

Measured: Activity

C[C@@H]1C[C@@H]2O[C@@H]2/C=C/[C@]2(CC(=O)O1)C[C@@H](O)C(=O)O2
inactive: [1] | [2] | [3]

C[C@@H]1C[C@@H]2O[C@@H]2[C@H]2O[C@@H]2[C@@H](O)CC(=O)O1
inactive: all assays above

C[C@@H]1C[C@@H]2O[C@@H]2/C=C/[C@H](O)CC(=O)O1
inactive: all assays above

C[C@@H]1C[C@H](O)C(=O)CCC(O)CC(=O)O1 (stereo partly drawn)
inactive: all assays above
